According to patent US20210238528A1, “CELL SCAFFOLD MATERIAL” (Stem Cell & Device Laboratory, Inc., priority 2018, published 2021):

Tested on: myocardial cells derived from human iPS cells
Experiment: Drug response of myocardial cells determined with MEA probe
Conditions: for Drug response, Oriented fiber sheet 2: myocardial cells cultured 7 days with oriented fiber sheet 2, pitch 10 μm

COc1ccc(CCN(C)CCCC(C#N)(c2ccc(OC)c(OC)c2)C(C)C)cc1OC (stereo not shown) [Verapamil]
arrest (division stop) (0.3 μM verapamil, myocardial cells directly cultured on MEA probe): arrest (division stop) occurred | Drug response, Oriented fiber sheet 2: No arrest occurred. | Drug response, Oriented fiber sheet 2 (listed as verapamil): no an arrest (division stop) occurred | Drug response, MEA probe (myocardial cells cultured directly on MEA probe): Arrest occurred.
